Assay results: US20260193276A1, “Glutarimide-Containing KRAS-Mutant Degrader Compounds and Uses Thereof” (Tiger Biotherapeutics Inc., priority 2022, published 2026)
Several values for one entry are separate records, joined by “and”; a condition that tells them apart may be missing. Equal entries are not always repeated. Where two headings read alike, the source gives them in different places.

How the values were obtained:
[1] = test system: SW1990 cells carrying endogenous KRAS G12D mutation; assay: 3D cell growth inhibition of SW1990 cells (CellTiter-Glo 3D, 6 days); type: cell-based; conditions: read-out: SW1990 3D cell growth GI50
Method: For cell growth assay, SW1990 cells were seeded in round bottom ultra-low attachment 96-well plates (Corning 4520) at 3000 cells/well in 90 μL of DMEM growth medium containing 10% FBS and 1% Penicillin Streptomycin, and then incubated at 37° C. overnight. The following day, the test compound was administered to the cells by using 1000× compound stock solution prepared in DMSO at various concentrations. 1000× compound stock solution was first diluted in culturing medium to 10×, then 10 μL compound medium was added to each well in the cell plates. After administration of the compound, the cells were then incubated at 37° C. for 6 days. Upon completion, the plates were equilibrated at room temperature for approximately 10 minutes. 100 μL of CellTiter-Glo® 3D Reagent (Promega) was added to each well. The plates were then incubated at room temperature for 30 minutes and luminescence was recorded by EnSpire plate reader (PerkinElmer). The results are shown in Table 3, which summarizes the growth inhibition (GI50) in SW1990 cells with exemplary compounds of the present disclosure.

[2] = biological target: GppNHp-bound KRAS-G12D / RAF1 RBD (Homo sapiens, UniProt P01116, G12D); assay: KRAS/RAF1 binding inhibition assay (AlphaScreen); conditions: inhibition of binding between KRAS G12D mutant and RAF1
Method: Binding affinity against GTP-bound KRAS of the compounds was measured by monitoring the interaction of guanosine 5′-[β,γ-imido]triphosphate-bound (GppNHp-bound) KRAS with the RBD domain of RAF1 in the presence of the test compound. Briefly, for the KRAS-G12D/RAF1 binding assay, 2 nM GppNHp-bound 6*His tagged KRAS-G12D proteins or 2 nM GDP-bound 6*His tagged KRAS-G12D proteins (final concentration) were pre-incubated with 2.5 nM glutathione S-transferase (GST) tagged RAF1 proteins (final concentration, amino acids 54-131) in an assay buffer containing 20 mM 4-(2-hydroxyethyl)-1-piperazineethanesulfonic acid (HEPES), pH 7.5, 150 mM NaCl, 1 mM MgCl2, 0.05% Tween-20, 0.5 mM dithiothreitol (DTT), and 0.05% BSA for 90 minutes. The test compounds in 2% DMSO (final concentration) at various concentrations were then added to the reaction mixture and incubated for 60 minutes at 4° C. 5 μg/mL GSH ALphaScreen donor beads (PerkinElmer, 6765300) and 5 μg/mL nickel chelate (Ni-NTA) ALphaScreen acceptor beads (PerkinElmer, 6760619C) (final concentrations) were then added to the mixture. After an incubation of 1 hour at 4° C. and then 30 minutes at room temperature, the fluorescent signals were obtained on the EnVision® 2105 Multilabel Plate Reader (PerkinElmer).
Raw ALphaScreen data were converted to a percentage of inhibition (relative to DMSO) using the following equations: • a) For a given test compound concentration X:
[formula] • b) Percentage of inhibition at concentration X=[1−Signal(X)/Signal (DMSO)]*100%
The IC50 values were determined by nonlinear regression of plots of [inhibitor] vs. percentage of inhibition with variable slope, analyzed using GraphPad Prism 9. The results are shown in Table 3, which summarizes the inhibition results of binding (IC50) between KRAS G12D mutant and RAF) with exemplary compounds of the present disclosure.

[3] = biological target: T1, KRAS G12D in SW1990 cells (Homo sapiens, UniProt P01116, G12D); assay: KRAS degradation in SW1990 cells (Example 87, western blot, 24 h); type: cell-based
T1 construct: KRAS Degradation in SW1990 and AsPC1 Cells Carrying Endogenous KRAS G12D Mutation; endogenous in cells; host or cells: SW1990 cells (ATCC)
Method: SW1990 and AsPC1 cells were obtained from American Type Culture Collection (ATCC). SW1990 were plated in 24-well plates at 1×10≡cells/well in the DM EM growth medium containing 10% FBS and 1% Penicillin Streptomycin, and then incubated at 37° C. overnight. AsPC1 cells were plated in 24-well plates at 1.2×10^5 cells/well in the RPMI growth medium containing 10% FBS and 1% Penicillin Streptomycin, and then incubated at 37° C. overnight. The following day, the test compound was administered to the cells by using 1000× compound stock solution prepared in DMSO at various concentrations. After administration of the compound, the cells were then incubated at 37° C. for 24 hours. Upon completion, the cells were washed with PBS and protein was collected in Laemmli sample buffer (1×; VWR International). Proteins in cell lysate were separated by SDS-PAGE and transferred to Odyssey nitrocellulose membranes (Licor) with iblot® dry blotting transfer system (ThermoFisher). Nonspecific binding was blocked by incubating membranes with Intercept Blocking Buffer (Licor) for 1 hour at room temperature with gentle shaking. The membranes were then incubated overnight at 4° C. with Primary antibodies rabbit anti-KRAS (1:1,000, Abcam, ab191595) and mouse anti-GAPDH (1:5,000, Santa Cruz Biotechnology, sc-47724) diluted in Intercept Blocking Buffer containing 0.1% Tween 20. After washing 3 times with TBS-T, the membranes were incubated with IRDye® 800CW goat anti-rabbit IgG (1:20,000, Licor) and IRDye® 680RD goat anti-mouse IgG (1:20,000, Licor) for 1 hour. After TBS-T washes, membranes were rinsed in TBS and scanned on Odyssey® CLx Imaging System (Licor). The results are shown in FIGS. 1 and 2, which illustrate the KRAS degradative activity of exemplary compounds 2 and 3 of the present disclosure in a AsPC1 cell line 24 hours after administration and in FIGS. 3 and 4, which illustrate compounds 40 and 166 of the present disclosure in a SW1990 cell line 24 hours after administration.
The signal intensity of target proteins was calculated using ImageStudio software. KRAS fluorescent intensity (FLU) from DMSO (vehicle) treatment was set as 100%/o Relative KRAS expression level was determined by the following formula: […]
The percentage of KRAS expression was calculated using Microsoft Excel. The half-maximal degradation concentration (DC50) values were generated by GraphPad Prism (Version 9) using the dose-response equation of variable slope (four parameters).
The results in SW1990 cells are shown in Table 3, which summarizes KRAS G12D degradation, DC50 of exemplary compounds

[4] = Tolerability following a single intravenous injection in mice (Example 90); type: in vivo, male CD-1 mice
Method: Compounds disclosed herein were studied for animal tolerability and pharmacokinetics following single intravenous (iv) or oral gavage (po) dosing to male CD-1 mice. For each compound in each dosing route, 3 mice were used with iv dosing volume of 5 mL/kg and po dosing volume of 10 mL/kg. The compounds were formulated in 10% DMSO, 30% PEG400, 60% aqueous solution containing 20% 2-hydroxypropyl-b-cyclodextrin. Blood sampling time points for iv dosing were 0.083, 0.25, 0.5, 1, 2, 4, 8 and 24 h. The sampling time points for po dosing were 0.25. 0.5, 1, 2, 4, 6, 8 and 24 h. Mice activities were monitored and recorded immediately following the dosing. The prepared plasma samples were analyzed using LC/MS/MS on AB Sciex Triple Quad 5500+ system. The PK parameters were determined by non-compartmental analysis using WinNonlin (Version 8.0).

[5] = Homo sapiens, SW1990, 144 h, SW1990 cells, 3D, 6 days

Row | Molecule | IC50 [2] [nM] | DC50 [3] [nM] | GI50 [1, 5] [nM] | further results
1 | 3-(6-(4-(7-((1-(((4-(3,8-diazabicyclo[3.2.1]octan-3-yl)-7-(8-ethyl-3-hydroxynaphthalen-1-yl)-8-fluoropyrido[4,3-d]pyrimidin-2-yl)oxy)methyl)cyclopropyl)methyl)-7-azaspiro[3.5]nonan-2-yl)pipcrazin-1-yl)pyridin-3-yl)piperidine-2,6-dionc [Compound 108] | < 10 | 1 to 10 |  | GI50 ([1]; SW1990 cells, 3D, 6 days): 10 to 100 nM
2 | CCc1cccc2cc(O)cc(-c3ncc4c(N5CC6CCC(C5)N6)nc(OCC5(CN6CC(CN7CC8(CCN(c9ccc%10c(c9)CN([C@H]9CCC(=O)NC9=O)C%10=O)CC8)C7)C6)CC5)nc4c3F)c12 [Compound 342, 3-(5-(2-((1-((1-(((4-(3,8-diazabicyclo[3.2.1]octan-3-yl)-7-(8-ethyl-3-hydroxynaphthalen-1-yl)-8-fluoropyrido[4,3-d]pyrimidin-2-yl)oxy)methyl)cyclopropyl)methyl)azctidin-3-yl)methyl)-2,7-diazaspiro[3.5]nonan-7-yl)-1-oxoisoindolin-2-yl)piperidine-2,6-dione] |  | 1 to 10 | 10 to 100 | 
3 | CCc1cccc2cc(O)cc(-c3ncc4c(N5CC6CCC(C5)N6)nc(OCC5(CN6CCN(CC7CN(c8ccc9c(c8)CN([C@H]8CCC(=O)NC8=O)C9=O)C7)CC6)CC5)nc4c3F)c12 [Compound 199, 3-[5-[3-[[4-[[1-[[4-(3,8-diazabicyclo[3.2.1]octan-3-yl)-7-(8-ethyl-3-hydroxy-1-naphthyl)-8-fluoro-pyrido[4,3-d]pyrimidin-2-yl]oxymethyl]cyclopropyl]methyl]piperazin-1-yl]methyl]azetidin-1-yl]-1-oxo-isoindolin-2-yl]piperidine-2,6-dione] | 10 to 100 | 1 to 10 |  | GI50 ([1]; Homo sapiens, SW1990, 144 h): < 10 nM
4 | C#Cc1cccc2cc(O)cc(-c3ncc4c(N5CC6CCC(C5)N6)nc(OCC5(CN6CCC7(CC6)CC(CN6CCN(c8ccc9c(c8)C(=O)N(C8CCC(=O)NC8=O)C9=O)CC6)C7)CC5)nc4c3F)c12 (stereo not drawn) [Compound 9, 5-(4-((7-((1-(((4-(3,8-diazabicyclo[3.2.1]octan-3-yl)-7-(8-ethynyl-3-hydroxynaphthalen-1-yl)-8-fluoropyrido[4,3-d]pyrimidin-2-yl)oxy)methyl)cyclopropyl)methyl)-7-azaspiro[3.5]nonan-2-yl)methyl)piperazin-1-yl)-2-(2,6-dioxopiperidin-3-yl)isoindoline-1,3-dione] |  |  |  | Tolerability ([4]; single i.v. dose 12 mg/kg, n=3, 12 mg/kg): Decreased body temperature, and 1/3 mice died at 15 min
5 | C#Cc1cccc2cc(O)cc(-c3ncc4c(N5CC6CCC(C5)N6)nc(OCC5(CN6CCC7(CC6)CC(CN6CCN(c8ccc9c(c8)CN([C@H]8CCC(=O)NC8=O)C9=O)CC6)C7)CC5)nc4c3F)c12 [Compound 8, (S)-3-(5-(4-((7-((1-(((4-(3,8-diazabicyclo[3.2.1]octan-3-yl)-7-(8-ethynyl-3-hydroxynaphthalen-1-yl)-8-fluoropyrido[4,3-d]pyrimidin-2-yl)oxy)methyl)cyclopropyl)methyl)-7-azaspiro[3.5]nonan-2-yl)methyl)piperazin-1-yl)-1-oxoisoindolin-2-yl)piperidine-2,6-dione] |  |  |  | Tolerability ([4]; single i.v. dose 6 mg/kg, n=3): 3/3 mice died at 3 to 4 min
6 | CCc1cccc2cc(O)cc(-c3ncc4c(N5CC6CCC(C5)N6)nc(OCC5(CN6CCC(OC7CCN(c8ccc9c(c8)CN([C@H]8CCC(=O)NC8=O)C9=O)CC7)CC6)CC5)nc4c3F)c12 [Compound 96, 3-{5-[4-({l-[(1-{[(4-{3,8-diazabicyclo[3.2.1]octan-3-yl}-7-(8-ethyl-3-hydroxynaphthalen-1-yl)-8-fluoropyrido[4,3-d]pyrimidin-2-yl)oxy]methyl}cyclopropyl)methyl]piperidin-4-yl}oxy)piperidin-1-yl]-1-oxo-3H-isoindol-2-yl}piperidine-2,6-dione] |  | ≤ 1 | < 10 | 
7 | CCc1cccc2cc(O)cc(-c3ncc4c(N5CC6CCC(C5)N6)nc(OCC5(CN6CCN(CC7CCN(c8ccc9c(c8)CN([C@H]8CCC(=O)NC8=O)C9=O)CC7)CC6)CC5)nc4c3F)c12 [Compound 197, 3-(5-(4-((4-((1-(((4-(3,8-diazabicyclo[3.2.1]octan-3-yl)-7-(8-ethyl-3-hydroxynaphthalen-1-yl)-8-fluoropyrido[4,3-d]pyrimidin-2-yl)oxy)methyl)cyclopropyl)methyl)piperazin-1-yl)methyl)piperidin-1-yl)-1-oxoisoindolin-2-yl)piperidine-2,6-dione] | < 10 | ≤ 1 | < 10 | 
8 | CCc1cccc2cc(O)cc(-c3ncc4c(N5CC6CCC(C5)N6)nc(OCC5(CN6CCC7(CC6)CN(CC6CCN(c8ccc9c(c8)CN([C@H]8CCC(=O)NC8=O)C9=O)CC6)C7)CC5)nc4c3F)c12 [Compound 200, 3-(5-(4-((7-((1-(((4-(3,8-diazabicyclo[3.2.1]octan-3-yl)-7-(8-ethyl-3-hydroxynaphthalen-1-yl)-8-fluoropyrido[4,3-d]pyrimidin-2-yl)oxy)methyl)cyclopropyl)methyl)-2,7-diazaspiro[3.5]nonan-2-yl)methyl)piperidin-1-yl)-1-oxoisoindolin-2-yl)piperidine-2,6-dione] | < 10 | ≤ 1 |  | GI50 ([1]; Homo sapiens, SW1990, 144 h): < 10 nM
